The subject of data set [1] is peripheral blood mononuclear cells (PBMCs). The following applies: pbmc; cited from earlier work.
The test system of the next data set is HCV GT1b. The following applies: Cho et al. 2012, Table 1; cited from earlier work.
Data set [2] concerns hepatitis virus C (HCV) genotype 1a. The data set is described as follows: HCV subgenomic replicon assay (RHEPTAQ), genotype 1a. Type of data set: cell-based. The conditions noted are these: Hepatitis C virus, Table 4, genotype 1a; read-out: Replicon: EC50 (1a). An excerpt: (§1) Table 3 and Table 4 summarize the measured activities of these prodrugs as assessed in a subgenomic replicon assay (RHEPTAQ), against genotypes 1a, 1b and 2a.
In general terms: In antiviral work, replicon cells carry a viral genome segment that copies itself.

The subject of data set [3] is hepatitis virus C (HCV) genotype 1b. The data set can be described thus: HCV subgenomic replicon assay (RHEPTAQ), genotype 1b. Type of data set: cell-based. The following applies: Hepatitis C virus, Table 4, genotype 1b; read-out: Replicon: EC50 (1b).
From the text: as §1

The subject of data set [4] is hepatitis virus C (HCV) genotype 1c. The data set is described as follows: HCV replicon, genotype printed as 1c. Type of data set: cell-based. The following applies: read-out: Replicon: EC50 (1c).
A further data set in a line: Tox: EdU/CellCount CC50. Type of data set: cell-based.
Data set [5] concerns hepatitis virus C (HCV) genotype 2a. The data set can be described thus: HCV subgenomic replicon assay (RHEPTAQ), genotype 2a. The following applies: Hepatitis C virus, Table 4, genotype 2a; read-out: Replicon: EC50 (2a). Type of data set: cell-based.
From the text: as §1

A further data set deals with HIV-1. The conditions noted are these: HIV-1, PBMCs; cited from earlier work.
[6] abbreviates: CellCount readout, read-out: Tox: CellCount CC50.
The mark [7] stands for this setting: EdU readout, read-out: Tox: EdU CC50.

Read-outs that look alike come from different tables or passages of the source.

`CC(Cn1cnc2c(N)ncnc21)OCP(=O)(O)OP(=O)(O)OP(=O)(O)O` (stereo in doubt) [tenofovir diphosphate]: the “half-life in peripheral blood mononuclear cells (PBMCs)” value in data set [1] is > 100 h.

For the molecule `C[C@@]1(O)[C@H](O)[C@@H](COP(=O)(O)OP(=O)(O)OP(=O)(O)O)O[C@H]1n1ccc(=O)[nH]c1=O` [triphosphate 2′-C-Me-U], in the data set with HCV GT1b, the EC50 (in general, the concentration at which the effect is half-maximal) is 1.32 µM.

Turning to `C[C@@]1(F)[C@@H]2OP(=O)(OC3CSSC[C@@H]3OCc3ccccc3)OCC2O[C@H]1n1ccc(=O)[nH]c1=O` (some centres unmarked), the results for the EC50 in data set [2], in data set [3] and in data set [4] were 0.092 µM, 0.107 µM and 0.101 µM, respectively. The values for the CC50 in “Tox: EdU/CellCount CC50” (setting [6]) and in “Tox: EdU/CellCount CC50” (setting [7]) were 85 µM and 30 µM, respectively.

Turning to `C[C@@]1(O)[C@@H]2OP(=O)(OC3CSSC[C@@H]3OCc3ccccc3)OCC2O[C@H]1n1ccc(=O)[nH]c1=O` (single isomer, unassigned) [drawing 112], the EC50 in data set [2] was determined as 0.07 µM; in data set [3], 0.11 µM; in data set [5] it was 0.09 µM. The CC50 (usually the concentration that lowers cell viability or growth by half) is 8.5 µM in “Tox: EdU/CellCount CC50” (setting [6]) and 4.1 µM in “Tox: EdU/CellCount CC50” (setting [7]).

Consider `C[C@@]1(O)[C@H](O)[C@@H](CO)O[C@H]1n1ccc(=O)[nH]c1=O` [2′-C-Me-U, 2′-C-methyl-uridine], for which the EC50 in the data set on HCV GT1b is 15.2 µM.

`C[C@H](Cn1cnc2c(N)ncnc21)OCP(=O)(O)O` [tenofovir]: in the data set with HIV-1, the concentration giving a half-maximal response (EC50) was 1.2 µM.

These data come from patent publication US9624249B2, “Nucleoside kinase bypass compositions and methods” (Merck Sharp & Dohme Corp., priority 2013, dated 2017).
